Test results published in US9353090B2, “Heterocyclic carboxylic acids as activators of soluble guanylate cyclase” (Boehringer Ingelheim International GmbH, priority 2014, dated 2016).
Values after ≈ are worked out from the molar mass of the structure shown.

Key:
[1] = biological target: human soluble guanylate cyclase alpha 1 and beta 1 subunits (sGC) (Homo sapiens (Human), UniProt Q02108+Q02153); test: sGC cellular activator assay (cGMP, HTRF), in the presence and absence of 50% human serum; assay type: cell-based; settings: CHO cells stably expressing human sGC alpha 1/beta 1, preincubated with 40 microM ODQ; cGMP by HTRF; Table 2 does not state whether with or without 50% human serum
human soluble guanylate cyclase alpha 1 and beta 1 subunits (sGC) (Homo sapiens (Human), UniProt Q02108+Q02153), sequence (Q02108 whole entry partner): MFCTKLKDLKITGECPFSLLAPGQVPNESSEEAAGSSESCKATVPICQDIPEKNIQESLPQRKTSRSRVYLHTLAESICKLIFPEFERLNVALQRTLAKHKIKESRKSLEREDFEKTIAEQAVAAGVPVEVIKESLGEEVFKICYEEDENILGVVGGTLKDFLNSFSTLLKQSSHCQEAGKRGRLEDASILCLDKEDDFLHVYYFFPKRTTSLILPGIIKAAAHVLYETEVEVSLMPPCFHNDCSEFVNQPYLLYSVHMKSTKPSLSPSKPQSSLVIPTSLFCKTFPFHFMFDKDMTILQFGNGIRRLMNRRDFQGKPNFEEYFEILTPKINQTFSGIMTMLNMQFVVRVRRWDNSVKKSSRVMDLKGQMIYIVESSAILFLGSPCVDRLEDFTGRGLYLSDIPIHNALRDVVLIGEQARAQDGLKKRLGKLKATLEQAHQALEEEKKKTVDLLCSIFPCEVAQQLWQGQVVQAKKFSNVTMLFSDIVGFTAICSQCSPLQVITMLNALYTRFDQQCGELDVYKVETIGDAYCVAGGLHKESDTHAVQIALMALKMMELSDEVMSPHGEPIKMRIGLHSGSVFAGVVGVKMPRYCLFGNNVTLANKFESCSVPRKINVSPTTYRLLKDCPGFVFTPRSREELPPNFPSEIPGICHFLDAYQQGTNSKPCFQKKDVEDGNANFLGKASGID
human soluble guanylate cyclase alpha 1 and beta 1 subunits (sGC) (Homo sapiens (Human), UniProt Q02108+Q02153), sequence (Q02153 whole entry): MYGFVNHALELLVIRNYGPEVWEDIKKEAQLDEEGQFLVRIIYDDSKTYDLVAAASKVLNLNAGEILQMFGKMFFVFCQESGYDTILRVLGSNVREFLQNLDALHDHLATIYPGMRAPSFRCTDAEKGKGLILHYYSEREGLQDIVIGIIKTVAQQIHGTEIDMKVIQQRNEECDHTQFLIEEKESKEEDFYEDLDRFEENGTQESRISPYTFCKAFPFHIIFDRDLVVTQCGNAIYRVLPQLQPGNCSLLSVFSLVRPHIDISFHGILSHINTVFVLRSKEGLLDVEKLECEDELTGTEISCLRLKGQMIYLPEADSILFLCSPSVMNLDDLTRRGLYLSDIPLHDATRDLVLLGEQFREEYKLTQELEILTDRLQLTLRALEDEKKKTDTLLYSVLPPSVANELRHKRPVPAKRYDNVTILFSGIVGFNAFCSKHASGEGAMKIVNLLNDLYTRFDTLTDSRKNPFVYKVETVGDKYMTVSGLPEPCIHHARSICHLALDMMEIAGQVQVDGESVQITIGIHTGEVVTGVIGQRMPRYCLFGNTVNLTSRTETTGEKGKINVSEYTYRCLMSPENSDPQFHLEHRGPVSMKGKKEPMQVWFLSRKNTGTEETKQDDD
Method in brief: (§1)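 First, CHO-sGC (human α1β1) cells get 1 h ODQ at 40 microM with IBMX and 0.1% BSA. Finally, cGMP is quantified by HTRF and EC50 computed.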

[2] = Human liver microsome (HLM) metabolic stability assay; assay type: in vitro ADME; settings: human liver microsomes
Method in brief: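 Remaining parent measured by LC/MS/MS (ESI, MRM) at 5, 15, 30 and 60 min relative to 0 min. Incubation: 1 uM compound, HLMs, NADPH-started, 37° C., 60 min total, single replicate. Slope of ln(% remaining) gives t1/2 = 0.693/slope, then CLint, CLh and % Qh.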

[3] = 24 h
Procedure: (§2) Solubility is measured by the following method.
(§3) 100 uL, 10 mM DMSO stock solution of each compound is prepared in a 96 well plate format. The experiment is done in single determination at 3 pH values (2.2, 4.5 and 6.8). For each pH and one reference, 40 uL of each compound is needed.
(§4) McIlvaine pH 2.2: To 2.076 g citric acid monohydrate and 0.043 g Na2HPO4×2H2O add 100 ml deionized water
(§5) McIlvaine pH 4.5: To 1.166 g citric acid monohydrate and 1.585 g Na2HPO4×2H2O add 100 ml deionized water
(§6) McIlvaine pH 6.8: To 0.476 g citric acid monohydrate and 2.753 g Na2HPO4×2H2O add 100 ml deionized water
(§7) With a suitable liquid handling device (Multipette® or a liquid handler) 390 uL of each buffer solution and 10 uL of compound is added to each well of a 96 deep well plate. The plates are covered firmly and shaken for 24 h on an over head shaker (at 54 RPM) at room temperature. The DMSO content in the final buffer is 2.5% v/v.
(§8) After 24 h the plates are centrifuged to remove droplets on the lid before opening (for ˜5 min at 2500 RPM).
(§9) The filtration is done under vacuum with Millipore 96 well filter plate. Filtrate is collected in a deep well plate and transferred to a suitable plate for UPLC analysis.
(§10) The reference plate is prepared by adding 10 uL of compound to 390 uL of 50:50 acetonitrile/water in a 96 deep well plate and transferred to a suitable plate for UPLC analysis. Wells are checked visually for precipitation, any presence noted under comments in reported results.
(§11) The samples are measured with UPLC-UV using the chromatographic method described below.
(§12) Waters Empower®2 software is used for generating Sample Sets (according to the plate layout), Sample Set Methods and Instrument Methods.
(§13) One Sample Set comprises the methods for three 96 well plates (one reference plate and two sample plates, and includes one Sample Set Method and one Instrument Method).
Data Processing and Analysis
(§14) The UV chromatograms collected at 254 nm are integrated and processed.
(§15) It is assumed that the compound is completely dissolved in the reference solution (50:50 acetonitrile/water)

[4] = biological target: human soluble guanylate cyclase alpha 1 and beta 1 subunits (sGC) (Homo sapiens (Human), UniProt Q02153); test: sGC cellular activator assay (cGMP, HTRF), in the presence and absence of 50% human serum; assay type: cell-based; settings: CHO cells stably expressing human sGC alpha 1/beta 1, preincubated with 40 microM ODQ; cGMP by HTRF; Table 2 does not state whether with or without 50% human serum
human soluble guanylate cyclase alpha 1 and beta 1 subunits (sGC) (Homo sapiens (Human), UniProt Q02153), sequence (Q02108 whole entry partner): as the sequence (Q02108 whole entry partner) above
human soluble guanylate cyclase alpha 1 and beta 1 subunits (sGC) (Homo sapiens (Human), UniProt Q02153), sequence (Q02153 whole entry): as the sequence (Q02153 whole entry) above
Method in brief: as §1

physchem = settings: kinetic from dmso stock
Procedure: as §2, §3, §4, §5, §6, §7, §8, §9, §10, §11, §12, §13
Data Processing and Analysis
as §14, §15

[5] = pH 2.2, aqueous buffer, Solubility (pH 2.2)
[6] = pH 4.5, aqueous buffer, Solubility (pH 4.5)
[7] = pH 6.8, aqueous buffer, Solubility (pH 6.8)

Row | SMILES | EC50 [1] [nM] | Metabolic stability (Qh %), % hepatic blood flow [2] [%] | Solubility (pH 2.2) [3] [μg/mL] | Solubility (pH 4.5) [3] [μg/mL] | Solubility (pH 6.8) [3] [μg/mL] | EC50 [4] [nM] | solubility at 24 h (physchem; [5]) [µg/mL] | solubility at 24 h (physchem; [6]) [µg/mL] | solubility at 24 h (physchem; [7]) [µg/mL]
1 | COC[C@H]1N(c2cccc(-c3cccc(C)c3OCc3cc(C)c4c(c3)CCN(C3CCOC3)C4)n2)C[C@@H]2C[C@@]21C(=O)O (single isomer, unassigned) [Compound 52] | 12 | 38 | 110 | 93 | 76 | – | – | – | –
2 | CO[C@H]1CN(c2nc(-c3cccc(C)c3OCc3cc(C)c4c(c3)CCN(CC3COCCO3)C4)cs2)CC[C@H]1C(=O)O (single isomer, unassigned) [Compound 169] | 29 | <24 | 130 | 96 | 90 | – | – | – | –
3 | Cc1c(COc2ccccc2-c2cccc(N3CC[C@@]4(C(=O)O)C[C@H]4C3)n2)ccc2c1CCN(C1CCOCC1)C2 [Compound 3] | – | <24 | 140 | 120 | 60 | 3 | – | – | –
4 | Cc1cc(COc2c(C)cccc2-c2cccc(N3C[C@@H]4C[C@]4(C(=O)O)C3)n2)cc2c1CN(C1CCOC1)CC2 (some centres unmarked) [Compound 25] | 16 | <24 | 100 | 89 | 62 | – | – | – | –
5 | Cc1cc(COc2c(C)cccc2-c2cccc(N3C[C@@H]4C[C@]4(C(=O)O)C3)n2)cc2c1CN(C1CCOC1)CC2 (some centres unmarked) [Compound 26] | 9 | <24 | 110 | 90 | 67 | – | – | – | –
6 | CO[C@@H]1CN(c2cccc(-c3cc(C)ccc3OCc3cc(C)c4c(c3)CCN(C3CCOC3)C4)n2)CC[C@@H]1C(=O)O (some centres unmarked) [Compound 78] | 26 | <24 | 110 | 91 | 63 | – | – | – | –
7 | Cc1cc(COc2c(C)cccc2-c2csc(N3CC[C@@]4(C(=O)O)C[C@H]4C3)n2)cc2c1CN(CC1COCCO1)CC2 (some centres unmarked) [Compound 93] | 2 | <24 | 140 | 70 | 51 | – | – | – | –
8 | CO[C@@H]1CN(c2nc(-c3cccc(C)c3OCc3cc(C)c4c(c3)CCN(CC3COCCO3)C4)cs2)CC[C@@H]1C(=O)O (some centres unmarked) [Compound 176] | 64 | <24 | 140 | 95 | 89 | – | – | – | –
9 | CO[C@H]1CN(c2nc(-c3cccc(Cl)c3OCc3ccc4c(c3)[C@H](C)CN(C3CCOCC3)CC4)cs2)CC[C@H]1C(=O)O [Compound 320] | 4 | 26 | – | – | – | – | 115 (≈ 184 µM) | 60.6 (≈ 96.8 µM) | 46.4 (≈ 74.1 µM)
10 | CO[C@H]1CN(c2nc(-c3cccc(Cl)c3OCc3ccc4c(c3)[C@@H](C)CN(C3COC3)CC4)cs2)CC[C@H]1C(=O)O [Compound 321] | 3 | 47 | – | – | – | – | 112 (≈ 187 µM) | 41.5 (≈ 69.4 µM) | 50.5 (≈ 84.4 µM)
11 | CO[C@H]1CN(c2nc(-c3cccc(Cl)c3OCc3ccc4c(c3)[C@H](C)CN(C3COC3)CC4)cs2)CC[C@H]1C(=O)O [Compound 322] | 7 | 47 | – | – | – | – | 110 (≈ 184 µM) | 36.4 (≈ 60.9 µM) | 60.2 (≈ 101 µM)
12 | CO[C@H]1CN(c2nc(-c3cccc(C)c3OCc3ccc4c(c3)C(C)(C)CN(C3CCOCC3)CC4)cs2)CC[C@H]1C(=O)O [Compound 323] | 2 | 45 | – | – | – | – | 131 (≈ 211 µM) | 84.3 (≈ 136 µM) | 65.2 (≈ 105 µM)
13 | CO[C@@H]1CN(c2cccc(-c3cccc(C)c3OCc3ccc4c(c3)C(C)(C)CN(C3CCOCC3)CC4)n2)CC[C@@H]1C(=O)O [Compound 324] | 2 | <24 | – | – | – | – | 134 (≈ 218 µM) | 103 (≈ 168 µM) | 77.5 (≈ 126 µM)
14 | CO[C@H]1CN(c2nc(-c3cccc(C)c3OCc3ccc4c(c3)[C@@H](C)CN(C3COC3)CC4)cs2)CC[C@H]1C(=O)O [Compound 325] | 7 | 33 | – | – | – | – | 131 (≈ 227 µM) | 69.1 (≈ 120 µM) | 67.4 (≈ 117 µM)
15 | CO[C@@H]1CN(c2cccc(-c3cccc(C)c3OCc3ccc4c(c3)C(C)(C)CN(C3COC3)CC4)n2)CC[C@@H]1C(=O)O [Compound 326] | 1 | 59 | – | – | – | – | 129 (≈ 220 µM) | 91.1 (≈ 156 µM) | 71.6 (≈ 122 µM)
16 | CO[C@@H]1CN(c2nc(-c3cc(F)cc(C)c3OCc3ccc4c(c3C)CCN(C3COC3)CC4)cs2)CC[C@@H]1C(=O)O [Compound 327] | 5 | 61 | – | – | – | – | 99.8 (≈ 168 µM) | 51.8 (≈ 87 µM) | 59.1 (≈ 99.2 µM)
17 | CO[C@@H]1CN(c2nc(-c3cc(F)cc(C)c3OCc3ccc4c(c3)[C@@H](C)CN(C3CCOCC3)CC4)cs2)CC[C@@H]1C(=O)O [Compound 328] | 2 | 45 | – | – | – | – | 97.4 (≈ 156 µM) | 59.4 (≈ 95.2 µM) | 56.8 (≈ 91.1 µM)
18 | CO[C@@H]1CN(c2nc(-c3cc(F)cc(C)c3OCc3ccc4c(c3C)CCN(C3CCOCC3)CC4)cs2)CC[C@@H]1C(=O)O [Compound 329] | 13 | <24 | – | – | – | – | 103 (≈ 164 µM) | 63.9 (≈ 102 µM) | 68 (≈ 109 µM)
19 | CO[C@@H]1CN(c2nc(-c3cccc(Cl)c3OCc3ccc4c(c3)[C@@H](C)CN(C3CCOCC3)CC4)cs2)CC[C@@H]1C(=O)O [Compound 332] | 15 | <24 | – | – | – | – | 127 (≈ 202 µM) | 86.6 (≈ 138 µM) | 76.8 (≈ 123 µM)
20 | Cc1cccc(-c2cccc(N3CC[C@H](C(=O)O)[C@@H]4OCCC[C@H]43)n2)c1OCc1ccc2c(c1C)CCN(C1COC1)CC2 [Compound 336] | 54 | 32 | – | – | – | – | 69.9 (≈ 117 µM) | 37.6 (≈ 62.9 µM) | 30 (≈ 50.2 µM)
21 | Cc1cccc(-c2cccc(N3CC[C@H](C(=O)O)[C@@H]4OCCC[C@H]43)n2)c1OCc1ccc2c(c1C)CCN(C1CCOCC1)CC2 [Compound 337] | 130 | <24 | – | – | – | – | 113 (≈ 181 µM) | 80.5 (≈ 129 µM) | 78 (≈ 125 µM)
22 | CO[C@@H]1CN(c2cccc(-c3cccc(C)c3OCc3cc(C)c4c(c3)CN(C3CCOCC3)C4)n2)CC[C@@H]1C(=O)O [Compound 338] | 24 | <24 | – | – | – | – | 132 (≈ 230 µM) | 106 (≈ 185 µM) | 73.6 (≈ 129 µM)
